The results in this text go back to patent publication US12630515B2, “Small molecule prostagladin transport inhibitors” (ALBERT EINSTEIN COLLEGE OF MEDICINE, priority 2019, dated 2026).

As usually defined, the IC50 is the concentration at which inhibition is half-maximal. High values mean weaker potency in that assay, low ones greater potency in that assay.

Molecules are shown by their SMILES.

The target in this experiment is T1, rat PGT (Rattus norvegicus, UniProt Q00910).
T1 construct: expressed in transfected cells
Kind of experiment: PGT inhibition: [3H]PGE2 uptake in MDCK cells stably transfected with rat PGT. To be noted: room temperature. Format: cell-based. How it is done: MDCK cells stably transfected with rat PGT ae seeded at 15-20% confluence on 96-well deepwell plates. The day on which the cells are seeded is considered day 1. PGE2 uptake experiments are conducted on day 4. All of the PGE2 uptake experiments are conducted at room temperature. On day 4, cells are washed twice with Waymouth buffer (135 mM NaCl, 13 mM H-Hepes, 13 mM Na-Hepes, 2.5 mM CaCl2, 1.2 mM MgCl2, 0.8 mM MgSO4, 5 mM KCl, and 28 mM D-glucose). Then 200 μL of Waymouth buffer containing [^3H]PGE2 (available from Perkin Elmer) is added to each well. At the designed time, the uptake of [^3H]PGE2 is stopped by aspiration of uptake buffer; followed by immediate washing twice with 500 μL of chilled Waymouth buffer. Cells are then lysed with 100 μL lysis buffer containing 0.25% SDS and 0.05 N NaOH. 1.5 mL of scintillation solution is added to each well, and intracellular [^3H]PGE2 is counted via a Beta Counter.
For preliminary testing of the compounds, 20 μL of Waymouth buffer containing the compound is added to each well; this was immediately followed by the addition of 180 μL of Waymouth buffer containing [^3H]PGE2. In each well, the total volume of uptake medium is 200 μL. Test compounds are first dissolved in organic solvent, such as EtOH, and then diluted in Waymouth buffer. The percent inhibition of [^3H]PGE2 uptake by compounds is calculated as [(uptakevehicle−uptakeinhibitor)÷(uptakevehicle)]×100.
To determine IC50 of each compound, Waymouth buffer containing various concentrations of the compound is added to each well; immediately followed by the addition of 180 μL of Waymouth buffer containing [^3H]PGE2. IC50 was calculated by fitting the following equation. y=m1-m1*(m0/(m2+m0)).
The compound `CCOC(=O)C(CC)(CCC(=O)O)c1csc(Nc2ccccc2O)n1` (racemic) [Cmp. 1, 4-ethoxycarbonyl-4-[2-(2-hydroxyanilino)thiazol-4-yl]hexanoic acid] had a half-maximal inhibitory concentration (IC50) of less than 1000 nM. Compound `CCOC(=O)C(CC)(CCC(=O)O)c1csc(Nc2ccc(C)cc2)n1` (racemic) [Cmp. 3, 4-ethoxycarbonyl-4-[2-(4-methylanilino)thiazol-4-yl]hexanoic acid] displayed an IC50 of less than 20000 nM. As for `CCOC(=O)C(CC)(CCC(=O)O)c1cncc(Nc2ccc(C)cc2)n1` (racemic) [Cmp. 5, 4-ethoxycarbonyl-4-[6-(4-methylanilino)pyrazin-2-yl]hexanoic acid], the figure is less than 10000 nM; as for `CCOC(=O)C(CC)(CCC(=O)O)c1csc(Nc2ccc(F)cc2F)n1` (racemic) [Cmp. 6, 4-[2-(2,4-difluoroanilino)thiazol-4-yl]-4-ethoxycarbonyl-hexanoic acid], less than 10000 nM.

`CCC(CC)(CCC(=O)O)c1csc(Nc2ccccc2OC)n1` (racemic) [Cmp. 7, 4-ethyl-4-[2-(2-methoxyanilino)thiazol-4-yl]hexanoic acid]: the half-maximal inhibitory concentration (IC50) was less than 10000 nM. `CCOC(=O)C(CC)(CCC(=O)O)c1cncc(Nc2ccc(F)cc2F)n1` (racemic) [Cmp. 11, 4-[6-(2,4-difluoroanilino)pyrazin-2-yl]-4-ethoxycarbonyl-hexanoic acid] displayed a concentration for half-maximal inhibition (IC50) of less than 1000 nM.

In the case of `CCOC(=O)C(CC)(CCC(=O)O)c1csc(Nc2ccc(Cl)cc2Cl)n1` (racemic) [Cmp. 14a, 4-[2-(2,4-dichloroanilino)thiazol-4-yl]-4-ethoxycarbonyl-hexanoic acid], the 50% inhibitory concentration (IC50) was less than 1000 nM.

In the case of `CCOC(=O)C(CC)(CCC(=O)O)c1nc(Nc2ccc(Cl)cc2Cl)sc1Br` (racemic) [Cmp. 14b, 4-[5-bromo-2-(2,4-dichloroanilino)thiazol-4-yl]-4-ethoxycarbonyl-hexanoic acid], the IC50 was less than 1000 nM. `CCOC(=O)C(CC)(CCC(=O)O)c1cncc(Nc2ccccc2OC)n1` (racemic) [Cmp. 17, 4-ethoxycarbonyl-4-[6-(2-methoxyanilino)pyrazin-2-yl]hexanoic acid] showed an IC50 of less than 1000 nM. As for `CCOC(=O)C(CC)(CCC(=O)O)c1cncc(Nc2cc(F)ccc2F)n1` (racemic) [Cmp. 20, 4-[6-(2,5-difluoroanilino)pyrazin-2-yl]-4-ethoxycarbonyl-hexanoic acid], the figure is less than 1000 nM; as for `CCOC(=O)C(CC)(CCC(=O)O)c1nc(Nc2ccc(Cl)cc2Cl)sc1C` (racemic) [Cmp. 23, 4-[2-(2,4-dichloroanilino)-5-methyl-thiazol-4-yl]-4-ethoxycarbonyl-hexanoic acid], less than 1000 nM; as for `CCOC(=O)C(CC)(CCC(=O)O)c1nc(Nc2ccccc2Cl)sc1Cl` (racemic) [Cmp. 27 (RS), 4-[5-chloro-2-(2-chloroanilino)thiazol-4-yl]-4-ethoxycarbonyl-hexanoic acid], less than 1000 nM.

For `CCOC(=O)C(CC)(CCC(=O)O)c1nc(Nc2ccc(F)cc2F)sc1C` (racemic) [compound 34, 4-(2-((2,4-difluorophenyl)amino)-5-methylthiazol-4-yl)-4-(ethoxycarbonyl)hexanoic acid], the IC50 is less than 10000 nM. In turn, `CCC(CCC(=O)O)(C(=O)OCC(C)C)c1cncc(Nc2ccc(C)cc2)n1` (racemic) [compound 35, 4-(isobutoxycarbonyl)-4-(6-(p-tolylamino)pyrazin-2-yl)hexanoic acid] returned a half-inhibitory concentration (IC50) of less than 10000 nM. As for `CCOC(=O)C(CCC(=O)O)(CC1CC1)c1cncc(Nc2ccc(C)cc2)n1` (racemic) [compound 36, 4-(cyclopropylmethyl)-5-ethoxy-5-oxo-4-(6-(p-tolylamino)pyrazin-2-yl)pentanoic acid], the concentration for half-maximal inhibition (IC50) is less than 10000 nM. For `CCOC(=O)C(CC)(CCC(=O)O)c1cncc(Nc2ccc(O)c(F)c2)n1` (racemic) [compound 37, 4-(ethoxycarbonyl)-4-(6-((3-fluoro-4-hydroxyphenyl)amino)pyrazin-2-yl)hexanoic acid] the value was less than 1000 nM; for `CCC(CCC(=O)O)(COC)c1cncc(Nc2ccc(F)cc2F)n1` (racemic) [compound 38, 4-(6-((2,4-difluorophenyl)amino)pyrazin-2-yl)-4-(methoxymethyl)hexanoic acid], less than 10000 nM; for `CCC(CCC(=O)O)(C(=O)OC1(C)CC1)c1cncc(Nc2ccc(F)cc2F)n1` (racemic) [compound 39, 4-(6-((2,4-difluorophenyl)amino)pyrazin-2-yl)-4-((1-methylcyclopropoxy)carbonyl)hexanoic acid], less than 1000 nM.

Consider `CCOC(=O)C(CC)(CCC(=O)O)c1nc(Nc2ccc(Cl)cc2Cl)sc1Cl` (racemic) [compound 40, 4-(5-chloro-2-((2,4-dichlorophenyl)amino)thiazol-4-yl)-4-(ethoxycarbonyl)hexanoic acid], for which the IC50 was less than 1000 nM.

With `CCOC(=O)C(CC)(CCC(=O)O)c1nc(Nc2ccccc2Cl)sc1Cl` (single isomer, unassigned) [27 (enantiomer 1)], the concentration for half-maximal inhibition (IC50) was less than 1000 nM. For `CCC(CC)(CCC(=O)O)c1csc(Nc2ccc(C)cc2)n1` [Cmp. 2, 4-ethyl-4-[2-(4-methylanilino)thiazol-4-yl]hexanoic acid] the value was less than 100000 nM; for `CCC(CC)(CCC(=O)O)c1csc(Nc2ccccc2Cl)n1` [Cmp. 8, 4-[2-(2-chloroanilino)thiazol-4-yl]-4-ethyl-hexanoic acid], less than 10000 nM. Compound `CCC(CC)(CCC(=O)O)c1csc(Nc2cccc(OC)c2)n1` [Cmp. 9, 4-ethyl-4-[2-(3-methoxyanilino)thiazol-4-yl]hexanoic acid] had a half-maximal inhibitory concentration (IC50) of less than 10000 nM. `CCC(CC)(CCC(=O)O)c1nc(Nc2ccccc2O)sc1C` [Cmp. 10, 4-ethyl-4-[2-(2-hydroxyanilino)-5-methyl-thiazol-4-yl]hexanoic acid] showed an IC50 of less than 1000 nM. As for `CCOC(=O)C(CC)(CCC(=O)O)c1ccnc(Nc2ccc(C)cc2)n1` (stereo not drawn) [Cmp. 13, 4-ethoxycarbonyl-4-[2-(4-methylanilino)pyrimidin-4-yl]hexanoic acid], the figure is less than 10000 nM.

For the compound `CCC(CC)(CCC(=O)O)c1cncc(Nc2ccc(F)cc2F)n1` [Cmp. 18, 4-[6-(2,4-difluoroanilino)pyrazin-2-yl]-4-ethyl-hexanoic acid], the IC50 is less than 1000 nM.

Compound `CCc1ncc(Nc2ccc(F)cc2F)nc1C(CC)(CC)CCC(=O)O` [Cmp. 19, 4-[6-(2,4-difluoroanilino)-3-ethyl-pyrazin-2-yl]-4-ethyl-hexanoic acid] had an IC50 of less than 1000 nM. Take `CCC(CC)(CCC(=O)O)c1nc(Nc2ccc(F)cc2F)sc1C` [Cmp. 21, 4-[2-(2,4-difluoroanilino)-5-methyl-thiazol-4-yl]-4-ethyl-hexanoic acid]: the 50% inhibitory concentration (IC50) was less than 1000 nM. `CCC(CC)(CCC(=O)O)c1nc(Nc2ccc(F)cc2F)sc1Br` [Cmp. 22b, 4-[5-bromo-2-(2,4-difluoroanilino)thiazol-4-yl]-4-ethyl-hexanoic acid] came in with an IC50 of less than 1000 nM. For the compound `CCC(CC)(CCC(=O)O)c1nc(Nc2ccc(Cl)cc2Cl)sc1C` [Cmp. 24, 4-[2-(2,4-dichloroanilino)-5-methyl-thiazol-4-yl]-4-ethyl-hexanoic acid], the half-maximal inhibitory concentration (IC50) is less than 1000 nM.

On to `CCC(CC)(CCC(=O)O)c1cncc(Nc2ccccc2Cl)n1` [Cmp. 28, 4-[6-(2-chloroanilino)pyrazin-2-yl]-4-ethyl-hexanoic acid], for which the IC50 is less than 1000 nM. Compound `CCC(CC)(CCC(=O)O)c1cncc(Nc2cc(F)c(F)cc2F)n1` [Cmp. 29, 4-ethyl-4-[6-(2,4,5-trifluoroanilino)pyrazin-2-yl]hexanoic acid] yielded a 50% inhibitory concentration (IC50) of less than 1000 nM. In the case of `CCC(CC)(CCC(=O)O)c1csc(-c2ccccc2)n1` [compound 30, 4-ethyl-4-(2-phenylthiazol-4-yl)hexanoic acid], the IC50 is less than 10000 nM. For `CCC(CC)(CCC(=O)O)c1csc(Nc2ccc(C(F)(F)F)cc2)n1` [compound 31, 4-ethyl-4-(2-((4-(trifluoromethyl)phenyl)amino)thiazol-4-yl)hexanoic acid] the value was less than 20000 nM; for `CCC(CC)(CCC(=O)O)c1coc(Nc2ccc(C)cc2)n1` [compound 32, 4-ethyl-4-(2-(p-tolylamino)oxazol-4-yl)hexanoic acid], less than 100000 nM; for `CCC(CC)(CCC(=O)O)c1nnc(Nc2ccc(C)cc2)o1` [compound 33, 4-ethyl-4-(5-(p-tolylamino)-1,3,4-oxadiazol-2-yl)hexanoic acid], less than 10000 nM.
